As usually defined, the AUC(0-inf) is the area under the concentration-time curve extrapolated to infinity. A lower AUC(0-inf) goes with low exposure. A word on the Cmax: it is the peak of the concentration-time curve. In general, Tmax refers to the time from dosing to the highest level.

The structures appear in SMILES notation.

Data set [1] has as its system dogs. Briefly: Dog toxicology study using buccal delivery for up to 4 weeks. In kind it is in vivo. The note with it: for maximum systemic concentration of fipamezole: buccal, first day. The protocol:
(§1) Cardiac safety was studied in dogs in a 30-day dog toxicology study using oral dosing and dog toxicology studies using buccal dosing.
Maximum systemic concentrations of fipamezole after dosing on the first day of this study were about 800, 2000 and 3300 ng/ml.

Data set [2] in a line: Plasma levels of fipamezole in healthy male volunteers after a single 30 mg dose (oral, oromucosal tablet, oromucosal spray). The note with it: for AUC(0-inf) / Cmax / Tmax: human, plasma; for AUC(0-inf) / Cmax / t1/2el: mean. Type of data set: in vivo, human. The protocol: Plasma levels of fipamezole were studied in healthy male volunteers after oral administration of the drug as a solution. Blood samples for pharmcokinetic evaluation were collected for 24 hours after the drug administration. The concentration of fipamezole in plasma was measured with HPLC-MS/MS, and the pharmacokinetic parameters were calculated. The pharmacokinetics of fipamezole was evaluated with TopFit 2.0 pharmacokinetic program. The Cmax and tmax values were read from the concentration vs. time curves, and the apparent elimination phase half-lives from the terminal part of the semilogarithmic concentration vs. time curve (see FIG. 1). AUC values were calculated both to infinity and up to the last collection time with quantifiable fipamezole concentration. Mean plasma concentration time plot following single dose administration of 30 mg fipamezole via an oral, oromucosal spray and an oromucosal tablet on a semilogarithmic scale is shown in FIG. 1.

The subject of data set [3] is dogs. Briefly: 30-day dog toxicology study using oral dosing (cardiac safety). Type of data set: in vivo. The note with it: for maximum systemic fipamezole concentration: oral. The protocol: as §1
In the 30-day dog toxicology study fipamezole was administered orally at doses of 1, 5, 10 and 15 mg/kg/day for 30 days, resulting in maximum systemic fipamezole concentrations of about 200, 1000, 2000 and 3300 ng/ml, respectively.

The test system of data set [4] is dogs. Briefly: Dog toxicology study, buccal spray, sequential dosing regimen (blood pressure, heart rate, ECG). In kind it is in vivo. The protocol:
as §1
In another toxicology study four male dogs were given fipamezole in buccal spray doses of 1, 5 and 10 mg/kg in a sequential dosing regimen with 5 to 15 days between doses. Blood pressure (systolic, diastolic and mean), heart rate and ECGs were monitored before and up to 12 hours after dosing.

Where [5] appears, read: other: oromucosal spray, oromucosal spray.
The mark [6] stands for this setting: other: oromucosal tablet, oromucosal tablet.
[7] abbreviates: buccal spray 5 and 10 mg/kg, 30 minutes after dosing.

Regarding `CCC1(c2c[nH]cn2)Cc2ccc(F)cc2C1.Cl` (stereo not drawn) [fipamezole, 4-(2-ethyl-5-fluoroindan-2-yl)-1H-imidazole hydrochloride], the “changes in ECG” value in the data set on dogs [1] (buccal delivery 1, 5 and 10 mg/kg/day for up to 4 weeks) is on record as “no apparent changes in ECG”. Besides, the results for the “maximum systemic concentration of fipamezole” value with dogs [1] (1 mg/kg/day), with dogs [1] (5 mg/kg/day) and with dogs [1] (10 mg/kg/day) were “about 800 ng/ml”, roughly 2000 ng/mL and roughly 3300 ng/mL, respectively. The AUC(0-inf) in data set [2] (oral (solution)) was 7.65 ng·h/mL; in data set [2] (setting [5]), 157 ng·h/mL; in data set [2] (setting [6]), 116 ng·h/mL. The Cmax in data set [2] (oral (solution)) amounted to 1.59 ng/mL; in data set [2] (setting [5]), 49.2 ng/mL; in data set [2] (setting [6]), 31.7 ng/mL. Further, the time to peak (Tmax) in data set [2] (oral (solution), median) turned out to be 60 min; in data set [2] (other: oromucosal spray, oromucosal spray, median), 42 min; in data set [2] (setting [6]) it was 51 min. Further, the t1/2el in data set [2] (oral (solution)) amounted to 3.10 h; in data set [2] (oromucosal spray), 2.10 h; in data set [2] (oromucosal tablet) it was 3.10 h. In the data set with dogs [3] (high oral doses, 30-day study), the “systemic concentration of fipamezole at which QT prolongation was observed” value is “about 2000 ng/ml”. In addition, the “maximum systemic fipamezole concentration” value was “about 200 ng/ml” in the data set on dogs [3] (1 mg/kg/day for 30 days), roughly 1000 ng/mL in the data set with dogs [3] (5 mg/kg/day for 30 days), “about 2000 ng/ml” in the data set with dogs [3] (10 mg/kg/day for 30 days) and roughly 3300 ng/mL in the data set on dogs [3] (15 mg/kg/day for 30 days). For the same compound, the “ECG changes (P wave amplitude, P wave duration, P-Q interval, QRS interval or Q-T interval)” value with dogs [4] (buccal spray 1, 5 and 10 mg/kg, each dose level, up to 12 hours after dosing) is “No ECG changes”. Also, the “blood pressure (absolute values)” value in the data set on dogs [4] (setting [7]) is recorded as “significant transient increases”. In the data set with dogs [4] (setting [7]), the “heart rate (absolute values)” value is given as “significant transient increases”.
